In patent US20080207450A1, “Method of Substantially Preventing or Inhibiting Summer Bentgrass Decline” (priority 2007, published 2008):

Tested on: Creeping bentgrass
Assay: Outdoor bentgrass bed exposed to elevated atmospheric carbon dioxide over summer; visual quality and root depth
Type: in vivo, Agrostis stolonifera
Settings: about 700 ppm carbon dioxide from daylight until dark, July and August
Protocol: In the fall, the inventors established an outdoor bed of bentgrass in Lincoln Parish, La. This region has an average daily high temperature in July and August of 93° F. (www.enlou.com/econ/lincoln_econ.htm). The bed of bentgrass established by the inventors was a randomized block comprising three varieties of Creeping bentgrass: Penn A1 (Agrostis stolonifera ‘Penn A-1’), Penn A2, (Agrostis stolonifera ‘Penn A-2’) and Penn A4 (Agrostis stolonifera ‘Penn A-4’). The bentgrass bed was maintained over the winter. During the following July and August, the inventors constructed a conduit system through which carbon dioxide was pumped over a portion of the bentgrass bed (test zone). The conduit system comprised a plurality of hollow PVC pipes, each pipe having an approximate length of 72 inches and an approximate diameter of ¾ of an inch. Several of the pipes were affixed to each other to form the perimeter of a support platform having a rectangular shape. The remaining pipes were arranged in a parallel fashion and affixed within the support platform. […] The carbon dioxide concentrations in both zones were monitored via a standard, commercially available gas analyzer. At the end of August, both the treated and non-treated areas of the bentgrass were assayed visually for quality and also measured for root-depth.

SMILES: O=C=O [carbon dioxide]
- length of sample root (sample root from test zone, measured at end of August): approximately 10.75 inches
- visual quality of bentgrass (test zone, Lincoln Parish, La., assayed at end of August, varieties Penn A1, A2, A4): did not experience a loss in quality
